One block for each compound: values may come before it. Calls of active or inactive are those of the source. The calls are words filed in the database; no cut-off is given here.
What was measured:
[1] = target: T1, Histone-lysine N-methyltransferase EZH2 (Homo sapiens, UniProt Q15910); assay: Inhibition of methyltransferase activity of human EZH2 using chicken oligonucleosomes as substrate by pull down assay
Target sequence in this assay (Q15910 whole entry): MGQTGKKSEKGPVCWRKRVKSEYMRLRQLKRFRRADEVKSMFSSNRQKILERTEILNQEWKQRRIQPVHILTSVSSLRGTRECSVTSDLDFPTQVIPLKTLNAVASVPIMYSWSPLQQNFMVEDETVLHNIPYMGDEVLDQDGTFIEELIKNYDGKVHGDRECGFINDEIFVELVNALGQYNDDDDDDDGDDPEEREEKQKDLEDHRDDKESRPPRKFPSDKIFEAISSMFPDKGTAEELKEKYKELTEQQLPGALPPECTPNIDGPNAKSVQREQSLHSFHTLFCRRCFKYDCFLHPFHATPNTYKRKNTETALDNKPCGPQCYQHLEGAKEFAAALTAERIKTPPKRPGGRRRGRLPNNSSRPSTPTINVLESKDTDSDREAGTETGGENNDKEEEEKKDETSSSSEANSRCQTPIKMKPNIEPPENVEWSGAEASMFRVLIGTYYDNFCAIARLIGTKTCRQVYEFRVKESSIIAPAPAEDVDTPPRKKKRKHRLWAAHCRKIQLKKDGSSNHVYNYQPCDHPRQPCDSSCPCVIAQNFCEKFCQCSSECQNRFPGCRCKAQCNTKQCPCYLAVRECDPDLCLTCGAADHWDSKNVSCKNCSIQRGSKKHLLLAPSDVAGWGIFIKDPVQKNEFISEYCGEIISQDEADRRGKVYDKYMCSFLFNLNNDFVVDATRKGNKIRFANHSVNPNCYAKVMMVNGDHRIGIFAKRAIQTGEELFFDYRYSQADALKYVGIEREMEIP

[2] = target: T1, Histone-lysine N-methyltransferase EZH2; assay: Inhibition of methyltransferase activity of human EZH2 using chicken oligonucleosomes as substrate up to 10 uM by pull down assay
Target sequence in this assay (Q15910 whole entry, looked up): as the sequence (Q15910 whole entry) above

[3] = Clearance in mouse at 2 mg/kg, iv and 10 mg/kg, po by LC-MS/MS analysis; type: ADME, organism-based; conditions: in vivo
[4] = AUC in mouse at 2 mg/kg, iv and 10 mg/kg, po by LC-MS/MS analysis; type: ADME, organism-based; conditions: in vivo
[5] = Volume of distribution at steady state in mouse at 2 mg/kg, iv and 10 mg/kg, po by LC-MS/MS analysis; type: ADME, organism-based; conditions: in vivo, read-out: Vdss
[6] = Oral bioavailability in mouse at 10 mg/kg by LC-MS/MS analysis; type: ADME, organism-based; conditions: in vivo
[7] = Aqueous solubility of the compound at pH 7; type: physicochemical

IC50 [1]: 22000 nM
Structure (SMILES): Cc1cc(C)c(CNC(=O)c2ccc3c(cnn3C(C)C)c2)c(=O)[nH]1

IC50 [1]: > 10000 nM | inhibition [2]: inactive
Structure (SMILES): CCN(c1cc(Cl)cc(C(=O)NCc2c(C)cc(C)nc2OC)c1C)C1CCOCC1

clearance [3]: 49 mL/min/kg | AUC [4]: 680 ng·h/mL | Vd [5]: 0.45 L/kg | bioavailability [6]: 1.6%
Structure (SMILES): CCN(c1cc(Cl)cc(C(=O)NCc2c(C)cc(C)[nH]c2=O)c1C)C1CCOCC1

IC50 [1]: > 50000 nM
Structure (SMILES): Cc1cc(C)c(CNC(=O)c2cccc3c2nnn3C(C)C)c(=O)[nH]1

IC50 [1]: > 50000 nM
Structure (SMILES): Cc1cc(C)c(CNC(=O)c2cccc3c2ncn3C(C)C)c(=O)[nH]1

clearance [3]: 90 mL/min/kg | AUC [4]: 350 ng·h/mL | Vd [5]: 2.7 L/kg | bioavailability [6]: 18%
Structure (SMILES): Cc1cc(C)c(CNC(=O)c2cc(Br)cc(N(C)C3CCOCC3)c2C)c(=O)[nH]1

solubility ([7]; buffer): soluble | clearance [3]: 35 mL/min/kg | AUC [4]: 950 ng·h/mL | Vd [5]: 1.5 L/kg | bioavailability [6]: 41%
Structure (SMILES): Cc1cc(C)c(CNC(=O)c2cc(-c3ccc(CN4CCOCC4)cc3)nc3c2cnn3C(C)C)c(=O)[nH]1

IC50 [1]: > 50000 nM
Structure (SMILES): Cc1cc(C)c(CNC(=O)c2ccc3cnn(C(C)C)c3c2)c(=O)[nH]1

solubility ([7]; buffer): soluble | IC50 [1]: 200 nM
Structure (SMILES): Cc1cc(C)c(CNC(=O)c2cc(-c3ccc(N4CCNCC4)nc3)nc3c2cnn3C(C)C)c(=O)[nH]1

clearance [3]: 13 mL/min/kg | AUC [4]: 2500 ng·h/mL | Vd [5]: 1 L/kg | bioavailability [6]: 55%
Structure (SMILES): CCN(c1cc(-c2ccc(CN3CCOCC3)cc2)cc(C(=O)NCc2c(C)cc(C)[nH]c2=O)c1C)C1CCOCC1 [TAZEMETOSTAT]

IC50 [1]: 50 nM
Structure (SMILES): Cc1cc(C)c(CNC(=O)c2cc(Br)nc3c2cnn3C2CCN(C(=O)C(C)(C)C)CC2)c(=O)[nH]1

solubility ([7]; buffer): soluble | IC50 [1]: 900 nM
Structure (SMILES): Cc1cc(C)c(CNC(=O)c2cc(Br)nc3c2cnn3C(C)C)c(=O)[nH]1

solubility ([7]; buffer): soluble | IC50 [1]: 2300 nM
Structure (SMILES): Cc1cc(C)c(CNC(=O)c2cc(C(C)C)nc3c2cnn3C(C)C)c(=O)[nH]1

solubility ([7]; aqueous, read-out: solubility): < 10 µM | IC50 [1]: 3400 nM
Structure (SMILES): Cc1cc(C)c(CNC(=O)c2cc(C)n(C3CCCCC3)c2C)c(=O)[nH]1

The next lines start with the compound.

Structure (SMILES): Cc1cc(C)c(CNC(=O)c2cccc3c2cnn3C(C)C)c(=O)[nH]1
IC50 [1]: 1100 nM

Structure (SMILES): Cc1cc(C)c(CNC(=O)c2cc(Br)cc(N(C)C3CCCC3)c2C)c(=O)[nH]1
clearance [3]: 18 mL/min/kg | AUC [4]: 46 ng·h/mL | Vd [5]: 0.97 L/kg | bioavailability [6]: 2%

Structure (SMILES): Cc1cc(C)c(CNC(=O)c2cc(N3CCNCC3)nc3c2cnn3C(C)C)c(=O)[nH]1
solubility ([7]; buffer): soluble | IC50 [1]: 1600 nM

Structure (SMILES): Cc1cc(C)c(CNC(=O)c2cc(C3=CC(C)(C)NC(C)(C)C3)nc3c2cnn3C(C)C)c(=O)[nH]1
solubility ([7]; buffer): soluble | IC50 [1]: 300 nM

Structure (SMILES): CCN(c1cc(Cl)cc(C(=O)NCc2c(C)cc(C)[nH]c2=O)c1)C1CCOCC1
IC50 [1]: 14000 nM

Structure (SMILES): Cc1cc(C)c(CNC(=O)c2ccc3cnn(C4CCCC4)c3c2C)c(=O)[nH]1
IC50 [1]: 6000 nM

Structure (SMILES): CCN(c1ccc(Cl)c(C(=O)N(C)Cc2c(C)cc(C)[nH]c2=O)c1C)C1CCOCC1
IC50 [1]: 200 nM

Structure (SMILES): Cc1cc(C)c(CNC(=O)c2ccnc3c2cnn3C(C)C)c(=O)[nH]1
solubility ([7]; buffer): soluble | IC50 [1]: 3100 nM

Structure (SMILES): Cc1cc(C)c(CNC(=O)c2cc(Br)nc3c2cnn3C2CCN(C(=O)OC(C)(C)C)CC2)c(=O)[nH]1
IC50 [1]: 200 nM

Structure (SMILES): Cc1cc(C)c(CNC(=O)c2cc(-c3ccc(CN4CCOCC4)cc3)cc3c2cnn3C2CCCC2)c(=O)[nH]1
clearance [3]: 11 mL/min/kg | AUC [4]: 2900 ng·h/mL | Vd [5]: 0.49 L/kg | bioavailability [6]: 47%

Structure (SMILES): Cc1cc(C)c(CNC(=O)c2cccc3c2ccn3C(C)C)c(=O)[nH]1
IC50 [1]: 3100 nM

Structure (SMILES): Cc1cc(C)c(CNC(=O)c2cc(Br)nc3c2cnn3C2CCN(C(=O)N(C)C)CC2)c(=O)[nH]1
IC50 [1]: 50 nM

Structure (SMILES): CCn1ncc2c(C(=O)NCc3c(C)cc(C)[nH]c3=O)cc(C3=CC(C)(C)NC(C)(C)C3)nc21
IC50 [1]: 5000 nM

Structure (SMILES): COc1cc(C(=O)NCc2c(C)cc(C)[nH]c2=O)c2cnn(C(C)C)c2n1
solubility ([7]; buffer): soluble | IC50 [1]: 2400 nM

Structure (SMILES): Cc1cc(C)c(CNC(=O)c2ccc3cnn(C4CCCC4)c3c2)c(=O)[nH]1
IC50 [1]: > 50000 nM

Structure (SMILES): Cc1cc(C)c(CNC(=O)c2cc(Br)nc3c2cnn3C2CCNCC2)c(=O)[nH]1
IC50 [1]: 2200 nM

Structure (SMILES): Cc1cc(C)c(CNC(=O)c2cc(-c3ccc4c(c3)OCCO4)nc3c2cnn3C(C)C)c(=O)[nH]1
IC50 [1]: 500 nM | clearance [3]: 24 mL/min/kg | AUC [4]: 700 ng·h/mL | Vd [5]: 1.3 L/kg | bioavailability [6]: 0.5%

Structure (SMILES): Cc1cc(C)c(CNC(=O)c2cc(-c3ccc(CN4CCOCC4)cc3)cc(N(C)C3CCCC3)c2C)c(=O)[nH]1
clearance [3]: 16 mL/min/kg | AUC [4]: 2500 ng·h/mL | Vd [5]: 0.66 L/kg | bioavailability [6]: 24%

Structure (SMILES): Cc1cc(C)c(CNC(=O)c2cc(Br)nc3c2cnn3C2CCOCC2)c(=O)[nH]1
IC50 [1]: 700 nM

Structure (SMILES): Cc1cc(C)c(CNC(=O)c2cc(C3=CC(C)(C)NC(C)(C)C3)nc3c2cnn3C)c(=O)[nH]1
IC50 [1]: 39000 nM
